The results in this text go back to US12583869B2, “Salt form and crystal form of A2A receptor antagonist and preparation method therefor” (CSTONE PHARMACEUTICAL (SUZHOU) CO., LTD., priority 2019, dated 2026).

A short description of data set [1]: Stability experiments of crystal forms (60°C/75% RH, HPLC related substances). Format: physicochemical. Particulars: for Stability under high temperature and high humidity conditions (in words): 60°C/75% humidity, 1 week. As to the method:
A certain amount (approximately 10 mg) of two parts of the crystal form A of the compound of formula (I), the crystal form B of the compound of formula (II) and the crystal form C of the compound of formula (III) were weighed in parallel, and added to a 40 mL of sample bottle, which were placed in a constant temperature and humidity box at 60° C./75% humidity for 1 week. Another sample (about 10 mg) of the crystal form A of the compound of formula (I), the crystal form B of the compound of formula (II) and the crystal form C of the compound of formula (III) were placed in a refrigerator at −20° C. as control samples. At the time point of investigation, the corresponding test sample was taken out of the stability box, the aluminum foil paper was removed from the sample bottle of 60° C./75% RH, and the sample bottle was covered with a bottle cap. The 0-day samples were taken out of the refrigerator and analyzed after the samples were restored to room temperature.

Data set [2] can be described thus: In vivo PK experiment, plasma and tumor tissue on day 20 of the efficacy experiment. The arrangement: species or system BALB/c mice. Conditions: BALB/c, mouse, oral; for concentration at 1 h / concentration at 4 h: tumor, read-out: Tumor drug concentration. As for the experimental part: Blood was collected and tissues were collected from each group of the experiment at different time points (0 h, 0.25 h, 0.5 h, 1 h, 2 h, 4 h, 8 h and 24 h) on day 20 of the administration of experimental embodiment 3. The pharmacokinetic parameters of each experimental group were shown in Table 12, and the biological ratios of the tumor tissue drug concentration and the corresponding blood sampling point tumor tissue drug concentration and plasma drug concentration of each experimental group were shown in Table 13.

Data set [3] in a line: Pharmacokinetic experiment in mice, single intravenous and oral administration. Type of data set: in vivo. Particulars: female, mouse, plasma; Balb/c mice, oral vs intravenous; read-out: Bioavailability F. As to the method: Experimental materials: Balb/c mice (female, 15-30 g, 7-9 weeks old, Shanghai Lingchang) were used.
Experimental method: The rodent pharmacokinetic characteristics of the compound after intravenous injection and oral administration were tested by a standard protocol. In the experiment, the candidate compound was formulated into a clear solution and given to mice by a single intravenous injection and a single oral administration. The solvent for intravenous injection (IV) was a mixed solvent of 5% DMSO/5% polyethylene glycol hydroxystearate/90% water, and the solvent for oral (PO) was a mixed solvents of 1% tween80, 9% PEG400, 90% H2O (pH=3). Whole blood samples within 48 hours were collected, centrifuged at 3000 g for 15 minutes at 4 degrees, separated the supernatant to obtain a plasma sample. Then 20 times the volume of acetonitrile solution containing internal standard was added to precipitate the protein, the mixture was centrifuged to take the supernatant, equal volume of water was added and centrifuge to take the supernatant again for injection. The blood drug concentration was quantitatively analyzed by LC-MS/MS analysis method, and the pharmacokinetic parameters were calculated, such as peak concentration, peak time, clearance rate, half-life, area under the drug-time curve, bioavailability, etc.

In data set [4] the test system is mouse colon cancer CT26 cells. Description: In vivo drug efficacy experiment, subcutaneous CT26 allograft tumor. The arrangement: species or system BALB/c mice. Conditions: CS1003 1 mg/kg intraperitoneal, day 20. As to the method:
Experimental materials: BALB/c mice (female); mouse colon cancer CT26 cells (cell bank of the Type Culture Collection Committee of the Chinese Academy of Sciences), were cultured in a monolayer in vitro, and the culture condition was RPMI-1640 medium containing 10% fetal bovine serum, and cultured in 5% CO2 incubator at 37° C. Trypsin-EDTA was used for conventional digestion and passage. When the cells were in the exponential growth phase and the saturation was 80%-90%, the cells were collected and counted.
Compound preparation: The compound of formula (II-1) was weighed and added to a solvent (10% PEG400+90% (10% Cremophor aqueous solution)) to prepare samples of 2.5 mg/mL, 5 mg/mL, and 10 mg/mL, respectively. […]
Experimental operation: The cells in Dulbecco's phosphate buffer were resuspended at a density of 3×10^6 cells/mL. […] During the entire experiment, the animals were weighed and monitored daily. […] The tumor diameter was measured with vernier calipers twice a week. […]
The anti-tumor efficacy of the compound was evaluated by GI (%) or relative tumor proliferation rate T/C (%). […]
The statistical analysis was based on the relative tumor volume and tumor weight at the end of the experiment using SPSS software. The comparison between the two groups was analyzed by t-test, and the comparison between three or more groups was analyzed by one-way ANOVA. […]

As usually defined, the bioavailability is the share of a dose that reaches the circulation, judged against a reference dose that is usually intravenous.

Where two headings read alike, the source gives them in different places.

As for `Nc1nc(-c2ccc(F)cc2)c(-c2ccc3ncnn3c2)c2nccnc12.O=C(O)/C=C\C(=O)O`, in data set [1] (0 day (control sample, -20°C)), the “Impurity at relative retention time 0.36” value amounted to 0.06, the “Impurity at relative retention time 0.45” value worked out at 0.09, the “Impurity at relative retention time 0.49” value is reported as 0.09 and the “Impurity at relative retention time 0.67” value is reported as 0.05. Further, in data set [1] (0 day (control sample, -20°C)), the “Impurity at relative retention time 0.70” value is reported as 0.11, the “Impurity at relative retention time 1.18” value stood at 0.29 and the Total impurities % was 0.69%. For the same molecule, in data set [1] (60 C./75% RH, one week), the “Impurity at relative retention time 0.36” value worked out at 0.05, the “Impurity at relative retention time 0.45” value was 0.09, the “Impurity at relative retention time 0.49” value was found to be 0.09 and the “Impurity at relative retention time 0.67” value is 0.05. In data set [1] (60 C./75% RH, one week), the “Impurity at relative retention time 0.70” value is given as 0.12, the “Impurity at relative retention time 1.18” value was 0.29 and the Total impurities % is listed as 0.69%. Moreover, the “Stability under high temperature and high humidity conditions (in words)” value (shortened to “Stability”) in data set [1] is listed as “good stability”.
Consider `Nc1nc(-c2ccc(F)cc2)c(-c2ccc3ncnn3c2)c2nccnc12` [Crystal form B of the compound of formula (II)], for which, in data set [1] (0 day (control sample, -20°C)), the “Impurity at relative retention time 0.36” value was determined as 0.09, the “Impurity at relative retention time 0.45” value came out at 0.10, the “Impurity at relative retention time 0.49” value was determined as 0.09 and the “Impurity at relative retention time 0.67” value is on record as 0.05. In data set [1] (0 day (control sample, -20°C)), the “Impurity at relative retention time 0.70” value amounted to 0.15, the “Impurity at relative retention time 1.18” value amounted to 0.40 and the Total impurities % was 0.87%. Besides, in data set [1] (60 C./75% RH, one week), the “Impurity at relative retention time 0.36” value is on record as 0.09, the “Impurity at relative retention time 0.45” value turned out to be 0.10, the “Impurity at relative retention time 0.49” value was determined as 0.09 and the “Impurity at relative retention time 0.67” value turned out to be 0.05. For the same molecule, in data set [1] (60 C./75% RH, one week), the “Impurity at relative retention time 0.70” value stood at 0.15, the “Impurity at relative retention time 1.18” value was 0.40 and the Total impurities % came out at 0.87%. The “Stability” value in data set [1] is “good stability”.
As to `Nc1nc(-c2ccc(F)cc2)c(-c2ccc3ncnn3c2)c2nccnc12` [Compound of formula (II-1)], the concentration at 1 h in data set [2] (25 mpk, Group 4, 25 mpk + CS1003, time point 1 h) turned out to be 3.48 µM; in data set [2] (50 mpk, Group 5, 50 mpk once a day + CS1003, time point 1 h), 9.96 µM; in data set [2] (100 mpk, Group 6, 100 mpk + CS1003, time point 1 h), 18.7 µM. The concentration at 4 h in data set [2] (25 mpk, Group 4, 25 mpk + CS1003, time point 4 h) worked out at 0.925 µM; in data set [2] (50 mpk, Group 5, 50 mpk once a day + CS1003, time point 4 h) it was 1.66 µM; in data set [2] (50 mpk, Group 8, 50 mpk twice a day + CS1003, time point 4 h), 3.02 µM; in data set [2] (100 mpk, Group 6, 100 mpk + CS1003, time point 4 h), 3.03 µM. Besides, the Kp at 1 h in data set [2] (tumor/plasma, Group 4, 25 mpk + CS1003, time point 1 h, read-out: T/P Ratio (compound exposure in tumor tissue and plasma)) is 0.7. The bioavailability in data set [3] is 30.4%.
For the molecule `Nc1nc(-c2ccc(F)cc2)c(-c2ccc3ncnn3c2)c2nccnc12` [Crystal form C of the compound of formula (III)], in data set [1] (0 day (control sample, -20°C)), the “Impurity at relative retention time 0.36” value was 0.05, the “Impurity at relative retention time 0.45” value stood at 0.09, the “Impurity at relative retention time 0.49” value was 0.08 and the “Impurity at relative retention time 0.67” value turned out to be 0.04. Further, in data set [1] (0 day (control sample, -20°C)), the “Impurity at relative retention time 0.70” value came out at 0.09, the “Impurity at relative retention time 1.18” value is given as 0.50 and the Total impurities % is 0.96%. In data set [1] (60 C./75% RH, one week), the “Impurity at relative retention time 0.36” value worked out at 0.05, the “Impurity at relative retention time 0.45” value worked out at 0.09, the “Impurity at relative retention time 0.49” value is listed as 0.08 and the “Impurity at relative retention time 0.67” value is listed as 0.04. For the same molecule, in data set [1] (60 C./75% RH, one week), the “Impurity at relative retention time 0.70” value is reported as 0.09, the “Impurity at relative retention time 1.18” value is given as 0.52 and the Total impurities % was found to be 1.16%. Also, in data set [1], the “Stability” value is “good stability”.

B1: CS1003: full-length, fully humanized immunoglobulin G4 (IgG4) monoclonal antibody against PD-1 (antibody, chains of the INN, looked up, V domains shown)
VH: QVQLVQSGAEVKKPGSSVKVSCKASGFTFTTYYISWVRQAPGQGLEYLGYINMGSGGTNYNEKFKGRVTITADKSTSTAYMELSSLRSEDTAVYYCAIIGYFDYWGQGTMVTVSS
VL: DVVMTQSPLSLPVTLGQPASISCRSSQSLLDSDGGTYLYWFQQRPGQSPRRLIYLVSTLGSGVPDRFSGSGSGTDFTLKISRVEAEDVGVYYCMQLTHWPYTFGQGTKLEIK
In data set [4], B1 gave a Tumor volume of 487.34±109.07 mm^3. Moreover, the “Tumor inhibition rate GI” value in data set [4] (no significant difference with solvent control) was found to be 42.47%.
